Where two headings read alike, the source gives them in different places.
What was measured:
[1] = system: tight junction proteins (such as claudin-5 and occludin); set-up: method as in Gibson et al., 2014; conditions: by inhibiting the activation of MMP-9; ref Gibson et al., 2014; cited from earlier work
[2] = Absorbed constituents and pharmacokinetics in rat plasma after Formula 9002A (UPLC-QTof-MS); conditions: for half-life: SD, rat; for Fold increase of mean residence time after Formula 9002A vs monomer: vs administration of a monomer; for Fold increase of half-life after Formula 9002A vs monomer: vs intragastric or intravenous monomer from literature
Description: The supernatant were obtained and concentrated, then dissolved with 50% methanol–water at 4°C for LC-MS/MS analysis.
Waters Xevo G2-XS QTof-MS and Masslynx software were used to acquire LC-MS/MS raw data. Chromatographic separation on the Waters Acquity UPLC HSS T3 column was performed on the samples. The mobile phases consisted of (A) 0.1% formic acid in water and (B) acetonitrile. […] The flow rate was set at 0.3 ml/min. The temperatures of the column and the auto sampler were maintained at 40 and 4°C, respectively. The injection volume was 5 μl.
MS conditions: positive and negative ion electrospray modes were both used. Capillary voltages were set at 3 kV for the positive mode and 2.5 kV for the negative mode. Source temperature was set as 100 °C. Nitrogen was used as the nebulizer and auxiliary gas; flow rates and temperature of desolvation gas were 1,000 L/h and 400°C, respectively. The range of data acquisition was from 50 to 1,000 m/z, and the scan time was set to 0.2 s. MS^E analysis was performed with 6 eV for the low collision energy scan and 35 eV for the high collision energy scan.
The absorbed components were identified by the exact molecular mass, molecular formula, and MS^2 fragment data compared with the standard substances and literature data. The DAS 3.3.0 software was used for calculating the terminal elimination half-life (t1/2) and mean residence time (MRT).

[3] = set-up: method as in Naseri-Nosar and Ziora, 2018; conditions: ref Naseri-Nosar and Ziora, 2018, cited from earlier work
Nrf2 and HO-1 = system: Nrf2 and HO-1; set-up: method as in Hindam et al., 2014; conditions: streptozotocin-induced cognitive dysfunction; ref Hindam et al., 2014; cited from earlier work
[4] = system: Aβ deposition and glial cell activation in the brain; set-up: method as in Hu et al. (2014); conditions: transgenic mice; ref Hu et al. (2014); cited from earlier work
3xTg AD mice = system: 3xTg AD mice; set-up: method as in Liu et al., 2013; conditions: after 8 months of treatment; ref Liu et al., 2013; cited from earlier work

OC[C@H]1O[C@@H](OCCc2ccc(O)cc2)[C@H](O)[C@@H](O)[C@@H]1O [salidroside]
Tight junction proteins / BBB damage [1]: reversed the decrease in tight junction proteins
half-life ([2]; plasma): 2.12 h
Fold increase of mean residence time after Formula 9002A vs monomer ([2]; plasma): ~2 fold
Fold increase of half-life after Formula 9002A vs monomer ([2]; plasma): 2- to 3 fold
half-life ([3]; gavage of salidroside monomer): 0.64 h
half-life ([3]; intravenous injection of salidroside monomer): 1.16 h

O=c1ccc2ccc(O)cc2o1 [umbelliferone]
Content of Nrf2 and HO-1 (Nrf2 and HO-1): significantly increase

OCc1ccc(O[C@@H]2O[C@H](CO)[C@@H](O)[C@H](O)[C@H]2O)cc1 [gastrodin]
half-life ([2]; in vivo): 2.58 h
Fold increase of mean residence time after Formula 9002A vs monomer ([2]; plasma): ~2 fold
Fold increase of half-life after Formula 9002A vs monomer ([2]; plasma): ~2 fold
Aβ deposition and glial cell activation in the brain [4]: significantly reduce Aβ deposition and glial cell activation

NC(=O)c1cccnc1 [niacinamide]
Cognitive function (3xTg AD mice): could be improved

From PMC9026172, “Pharmacodynamics, Network Pharmacology, and Pharmacokinetics of Chinese Medicine Formula 9002A in the Treatment of Alzheimer’s Disease” (Frontiers in Pharmacology, 2022)
